Several values for one entry are separate records, joined by “and”; a condition that tells them apart may be missing. Identical values can stand only once. Entries after “also recorded” stand apart in the source; their conditions may differ.
System: collagen-induced arthritis
Experiment: Collagen-induced arthritis (CIA) model in rats: body weight, paw volume, clinical scores, clinical observations; for Average detailed clinical score, left hind limb: key of the grades not given here; for Average detailed clinical score, right hind limb: key of the grades not given here; for Detailed Clinical Scores, left forelimb: key of the grades not given here; for Detailed Clinical Scores, left hind limb: key of the grades not given here; for Detailed Clinical Scores, right forelimb: key of the grades not given here; for Detailed Clinical Scores, right hind limb: key of the grades not given here; for Detailed Clinical Scores, score: key of the grades not given here; for Mean overall clinical score ± SD: key of the grades not given here; for Overall clinical score: key of the grades not given here
Settings: for Mean animal paw volume ± SD: group mean; for Detailed Clinical Scores, left forelimb / Detailed Clinical Scores, left hind limb / Detailed Clinical Scores, right forelimb / Detailed Clinical Scores, right hind limb / Detailed Clinical Scores, score: individual animals ID 1-8; for Overall clinical score: individual animals #1-8

## C[C@@H]1C[C@H]2[C@@H]3CCC4=CC(=O)C=C[C@]4(C)[C@@]3(F)[C@@H](O)C[C@]2(C)[C@@]1(O)C(=O)CO [dexamethasone]
CIA rats, Day 0, left hind paw (L)
  Average animal paw volume percent change: 0.00%
CIA rats, Day 0, left paw, individual animals
  Animal paw volume Day 0 L: 1.35 mL and 1.31 mL and 1.39 mL and 1.33 mL and 1.30 mL (2×) and 1.34 mL and 1.36 mL
CIA rats, Day 0, right hind paw (R)
  Average animal paw volume percent change: 0.00%
CIA rats, Day 0, right paw, individual animals
  Animal paw volume Day 0 R: 1.34 mL and 1.30 mL (2×) and 1.38 mL and 1.35 mL and 1.29 mL and 1.36 mL and 1.37 mL
CIA rats, Day 6, left hind paw (L)
  Average animal paw volume percent change: −3.37%
CIA rats, Day 6, left paw, individual animals
  Animal paw volume Day 6 L: 1.31 mL and 1.29 mL (3×) and 1.34 mL and 1.26 mL (2×) and 1.28 mL
CIA rats, Day 6, right hind paw (R)
  Average animal paw volume percent change: −3.26%
CIA rats, Day 6, right paw, individual animals
  Animal paw volume Day 6 R: 1.30 mL (3×) and 1.28 mL (2×) and 1.34 mL and 1.27 mL and 1.26 mL
CIA rats, Day 12, left hind paw (L)
  Average animal paw volume percent change: −4.94%
CIA rats, Day 12, left paw, individual animals
  Animal paw volume Day 12 L: 1.21 mL (2×) and 1.37 mL and 1.28 mL (2×) and 1.22 mL and 1.30 mL and 1.29 mL
CIA rats, Day 12, right hind paw (R)
  Average animal paw volume percent change: −5.21%
CIA rats, Day 12, right paw, individual animals
  Animal paw volume Day 12 R: 1.25 mL (2×) and 1.26 mL (2×) and 1.37 mL and 1.27 mL and 1.18 mL and 1.29 mL
CIA rats, Day 13, left hind paw (L)
  Average animal paw volume percent change: −3.57%
CIA rats, Day 13, left paw, individual animals
  Animal paw volume Day 13 L: 1.23 mL and 1.24 mL and 1.40 mL and 1.29 mL (2×) and 1.30 mL and 1.25 mL and 1.31 mL
CIA rats, Day 13, right hind paw (R)
  Average animal paw volume percent change: −4.08%
CIA rats, Day 13, right paw, individual animals
  Animal paw volume Day 13 R: 1.26 mL and 1.27 mL and 1.38 mL and 1.25 mL and 1.28 mL and 1.21 mL and 1.31 mL and 1.29 mL
CIA rats, Day 14, left hind paw (L)
  Average animal paw volume percent change: −4.60%
CIA rats, Day 14, left paw, individual animals
  Animal paw volume Day 14 L: 1.24 mL (3×) and 1.39 mL and 1.27 mL and 1.28 mL and 1.29 mL and 1.25 mL
CIA rats, Day 14, right hind paw (R)
  Average animal paw volume percent change: −5.07%
CIA rats, Day 14, right paw, individual animals
  Animal paw volume Day 14 R: 1.26 mL (4×) and 1.38 mL and 1.23 mL and 1.20 mL and 1.29 mL
CIA rats, Day 15, left hind paw (L)
  Average animal paw volume percent change: −5.47%
CIA rats, Day 15, left paw, individual animals
  Animal paw volume Day 15 L: 1.23 mL and 1.21 mL and 1.36 mL and 1.28 mL and 1.26 mL and 1.16 mL and 1.33 mL and 1.27 mL
CIA rats, Day 15, right hind paw (R)
  Average animal paw volume percent change: −5.41%
CIA rats, Day 15, right paw, individual animals
  Animal paw volume Day 15 R: 1.25 mL and 1.24 mL and 1.36 mL and 1.27 mL (2×) and 1.14 mL and 1.32 mL and 1.26 mL
CIA rats, Day 18, left hind paw (L)
  Average animal paw volume percent change: −3.01%
CIA rats, Day 18, left paw, individual animals
  Animal paw volume Day 18 L: 1.28 mL and 1.22 mL and 1.45 mL and 1.31 mL and 1.29 mL and 1.18 mL and 1.34 mL and 1.30 mL
CIA rats, Day 18, right hind paw (R)
  Average animal paw volume percent change: −3.14%
CIA rats, Day 18, right paw, individual animals
  Animal paw volume Day 18 R: 1.28 mL and 1.44 mL and 1.31 mL and 1.29 mL (2×) and 1.34 mL
CIA rats, Day 19, left hind paw (L)
  Average animal paw volume percent change: −3.33%
CIA rats, Day 19, left paw, individual animals
  Animal paw volume Day 19 L: 1.28 mL (2×) and 1.22 mL and 1.44 mL and 1.30 mL (2×) and 1.19 mL and 1.33 mL
CIA rats, Day 19, right hind paw (R)
  Average animal paw volume percent change: −3.57%
CIA rats, Day 19, right paw, individual animals
  Animal paw volume Day 19 R: 1.27 mL (2×) and 1.22 mL and 1.44 mL and 1.31 mL and 1.18 mL and 1.32 mL and 1.30 mL
CIA rats, Day 21, left hind paw (L)
  Average animal paw volume percent change: −3.56%
CIA rats, Day 21, left paw, individual animals
  Animal paw volume Day 21 L: 1.26 mL and 1.22 mL and 1.43 mL and 1.31 mL (2×) and 1.30 mL (2×) and 1.18 mL
CIA rats, Day 21, right hind paw (R)
  Average animal paw volume percent change: −3.51%
CIA rats, Day 21, right paw, individual animals
  Animal paw volume Day 21 R: 1.26 mL and 1.22 mL and 1.43 mL and 1.31 mL and 1.30 mL (2×) and 1.18 mL and 1.32 mL
CIA rats, daily P.O. for 21 days
  signs of disease over the 21-day period: No animals in group 3 (dexamethasone) ever received a score indicating that they exhibited symptoms of disease; also recorded: never exhibited any signs of disease
CIA rats, daily P.O. for 21 days, listed as Dexamethasone
  effect on hind paw volume: effective at controlling paw volume; also recorded: effective at preventing any change in paw volume throughout the entire 21-day period
CIA rats, daily P.O., day 12
  animals showing signs of disease: No animals
Day 0, L paw
  Mean animal paw volume ± SD: 1.33 mL
Day 0, L paw, individual animals
  Animal paw volume percent change: 0.00%
Day 0, R paw
  Mean animal paw volume ± SD: 1.33 mL
Day 0, R paw, individual animals
  Animal paw volume percent change: 0.00%
Day 0, CIA rats
  Average detailed clinical score, left forelimb: 0.00
  Average detailed clinical score, left hind limb: 0.00
  Average detailed clinical score, right forelimb: 0.00
  Average detailed clinical score, right hind limb: 0.00
  Average detailed clinical score, score: 0.00
  Mean overall clinical score ± SD: 0 ± 0
  Detailed Clinical Scores, left forelimb: 0
  Detailed Clinical Scores, left hind limb: 0
  Detailed Clinical Scores, right forelimb: 0
  Detailed Clinical Scores, right hind limb: 0
  Detailed Clinical Scores, score: 0
  Overall clinical score: 0
Day 6, L paw
  Mean animal paw volume ± SD: 1.29 mL
Day 6, L paw, individual animals
  Animal paw volume percent change: −2.97% and −1.53% and −3.61% and −3.02% and −3.09% and −3.08% and −4.12% and −5.51%
Day 6, R paw
  Mean animal paw volume ± SD: 1.29 mL
Day 6, R paw, individual animals
  Animal paw volume percent change: −3.00% and −1.16% and −2.91% and −3.72% and −1.56% and −2.70% and −5.90% and −5.13%
Day 6, CIA rats
  Average detailed clinical score, left forelimb: 0.00
  Average detailed clinical score, left hind limb: 0.00
  Average detailed clinical score, right forelimb: 0.00
  Average detailed clinical score, right hind limb: 0.00
  Average detailed clinical score, score: 0.00
  Mean overall clinical score ± SD: 0 ± 0
  Detailed Clinical Scores, left forelimb: 0
  Detailed Clinical Scores, left hind limb: 0
  Detailed Clinical Scores, right forelimb: 0
  Detailed Clinical Scores, right hind limb: 0
  Detailed Clinical Scores, score: 0
  Overall clinical score: 0
Day 12, L paw
  Mean animal paw volume ± SD: 1.27 mL
Day 12, L paw, individual animals
  Animal paw volume percent change: −10.41% and −7.66% and −1.44% and −3.40% and −1.54% and −6.54% and −3.00% and −5.51%
Day 12, R paw
  Mean animal paw volume ± SD: 1.26 mL
Day 12, R paw, individual animals
  Animal paw volume percent change: −6.74% and −3.09% and −0.73% and −7.43% and −1.56% and −9.27% and −7.01% and −5.86%
Day 12, CIA rats
  Average detailed clinical score, left forelimb: 0.00
  Average detailed clinical score, left hind limb: 0.00
  Average detailed clinical score, right forelimb: 0.00
  Average detailed clinical score, right hind limb: 0.00
  Average detailed clinical score, score: 0.00
  Mean overall clinical score ± SD: 0 ± 0
  Detailed Clinical Scores, left forelimb: 0
  Detailed Clinical Scores, left hind limb: 0
  Detailed Clinical Scores, right forelimb: 0
  Detailed Clinical Scores, right hind limb: 0
  Detailed Clinical Scores, score: 0
  Overall clinical score: 0
Day 13, L paw
  Mean animal paw volume ± SD: 1.28 mL
Day 13, L paw, individual animals
  Animal paw volume percent change: −8.92% and −5.36% and 0.72% and −3.02% and 0.00% and −4.23% and −2.25% and −5.51%
Day 13, R paw
  Mean animal paw volume ± SD: 1.28 mL
Day 13, R paw, individual animals
  Animal paw volume percent change: −5.99% and −2.32% and 0.36% and −7.43% and −0.78% and −6.95% and −3.69% and −5.86%

Source: patent US20250263370A1 (Tay Therapeutics Limited, priority 2022, published 2025)
